# In ChEMBL document CHEMBL1152052, “Probing the P3 pocket of stromelysin with piperazic acid analogs” (Bioorg Med Chem Lett, 1995):
# Target: Stromelysin-1 (Homo sapiens, UniProt P08254)
# Test: Inhibition of matrix metalloprotease-3 (MMP-3)
# Sequence of Stromelysin-1 (P08254 whole entry): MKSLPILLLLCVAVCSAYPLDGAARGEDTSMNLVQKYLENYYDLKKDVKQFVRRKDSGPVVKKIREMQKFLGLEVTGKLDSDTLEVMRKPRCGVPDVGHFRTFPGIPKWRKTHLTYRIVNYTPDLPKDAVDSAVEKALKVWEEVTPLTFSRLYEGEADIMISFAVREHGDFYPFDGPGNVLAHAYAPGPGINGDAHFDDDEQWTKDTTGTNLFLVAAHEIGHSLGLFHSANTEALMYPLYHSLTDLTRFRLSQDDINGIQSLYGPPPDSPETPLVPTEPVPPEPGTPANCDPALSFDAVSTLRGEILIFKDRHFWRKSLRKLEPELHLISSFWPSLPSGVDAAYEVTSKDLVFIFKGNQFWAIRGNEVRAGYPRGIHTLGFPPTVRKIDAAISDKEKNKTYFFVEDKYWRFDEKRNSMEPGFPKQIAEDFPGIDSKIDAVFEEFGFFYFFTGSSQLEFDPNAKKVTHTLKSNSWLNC
row,SMILES,IC50 [nM]
1,CCCCC[C@H](CC(=O)NO)C(=O)N1NCCC[C@H]1C(=O)N[C@@H](C(=O)CC)C(C)CC (stereo partly specified),300
2,COC(=O)[C@@H]1CCCNN1C(=O)[C@@H](CC(=O)NO)CC(C)C,810
3,CC(C)C[C@H](CC(=O)NO)C(=O)N1CCCCN1,9670

# Now from value to compound:
row,IC50 [nM],SMILES
1,2700,CC(C)C[C@H](CC(=O)NO)C(=O)N1NCCC[C@H]1CO
2,20400,COC[C@@H]1CCCNN1C(=O)[C@@H](CC(=O)NO)CC(C)C
3,600,CC(C)C[C@H](CC(=O)NO)C(=O)N1NCCC[C@H]1C(=O)O
